Results reported in patent publication US6444668B1 (Wyeth, priority 1999, dated 2002).
Several values for one entry are separate records, joined by “and”; a condition that tells them apart may be missing. Identical values can stand only once. Like-named read-outs stand apart in the source and are kept apart here.

How the values were obtained:
[1] = test system: rat uterine decidualization; test: Rat decidualization assay; assay type: in vivo; conditions: for Estimated average EC50 (decidual response) / Estimated EC50 for uterine wet weight (decidual response): s.c.; for Estimated average EC50 (decidual response): average of dose-response curves; for Estimated EC50 for uterine wet weight (decidual response): individual studies; for Decidualization IC50: half-maximal decrease in EC50 progesterone induced decidual response
Description: 1. Rat Decidualization Assay
b. Animals (RACUC Protocol #5002)
The animals are treated once daily for seven days.
Uteri are removed and trimmed of fat.
Body weight: Mean total animal body weight (default-kg)
Decidual response: [(D-C)/C]x100%

T47D cells = test: T47D cell proliferation assay (BrdU incorporation); assay type: cell-based; conditions: agonist mode, individual studies, read-out: Estimated EC50, BrdU incorporation
Description: 3. T47D Cell Proliferation Assay
The objective of this assay is the determination of progestational and antiprogestational potency by using a cell proliferation assay in T47D cells. A compound's effect on DNA synthesis in T47D cells is measured.
DMEM:F12 (1:1) (GIBCO, BRL) supplemented with 10% (v/v) fetal bovine serum (not heat-inactivated), 100U/ml penicillin, […] streptomycin, and 2 mM GlutaMax (GIBCO, BRL).
Minimum Essential Medium (MEM) (#51200-038GIBCO, BRL) phenol red-free supplemented with 0.5% charcoal stripped fetal bovine serum, 100U/ml penicillin, 200 mg/ml streptomycin, and 2 mM GlutaMax (GIBCO, BRL).
Stock T47 D cells are maintained in growth medium. For BrdU incorporation assay, cells are plated in 96-well plates (Falcon, Becton Dickinson Labware) at 10,000 cells/well in growth medium. […]
At the end of BrdU labeling, the medium is removed and BrdU incorporation is measured using a cell proliferation ELISA kit (#RPN 250, Amersham Life Science) according to manufacturer's instructions. […] Then 25 μl of 1 M sulfuric acid is added to each well to stop color reaction and optical density is read in a plate reader at 450 nm within 5 min.
Square root-transformed data are used for analysis of variance and nonlinear dose response curve fitting for both agonist and antagonist modes. […] EC50 or IC50 values are calculated from the retransformed values. […]

[2] = read-out: Decidualization, percentage inhibition at the dose specified

## C#C[C@]1(O)CC[C@H]2[C@@H]3CCC4=CC(=O)CC[C@@H]4[C@H]3C(=C)C[C@@]21CC [3-Ketodesogestrel, reference compound]
[1]
  Estimated average EC50 (decidual response): 0.10 mg/kg
  Estimated EC50 for uterine wet weight (decidual response): 0.10 mg/kg and 0.06 mg/kg and 0.11 mg/kg

## CC1(C)OC(=O)Nc2ccc(-c3ccc(F)c(C#N)c3)cc21 [Compound 1, 5-(4,4Dimethyl-2-oxo-1,4-dihydro-2H-benzo[d][1,3]oxazin-6-yl)-2-fluoro-benzonitrile]
[1]; [2]
  inhibition at 1 mg/kg: 80%

## CC1(C)OC(=O)Nc2ccc(-c3cc(F)cc(C(F)(F)F)c3)cc21 [Compound 2, 6-(3-Fluoro-5-trifluoromethyl-phenyl)-4,4-dimethyl-1,4-dihydro-benzo[d][1,3]oxazin-2-one]
[1]; [2]
  inhibition at 1 mg/kg: 50%
other
  melting point: 207 to 208 °C

## CC1(C)OC(=O)Nc2ccc(-c3cccc(F)c3)cc21 [Compound 3, 6-(3-Fluoro-phenyl)-4,4-dimethyl-1,4-dihydro-benzo[d][1,3]-oxazin-2-one]
[1]; [2]
  inhibition at 3 mg/kg: 80%
other
  melting point: 181 to 182 °C

## CC1(C)OC(=O)Nc2ccc(-c3cc(Cl)cc(Cl)c3)cc21 [Compound 4, 6-(3,5dichloro-phenyl)-4,4-dimethyl-1,4-dihydrobenzo-[d][1,3]oxazin-2-one]
[1]; [2]
  inhibition at 1 mg/kg: 60%
other
  melting point: 245 to 246 °C

## CC1(C)OC(=O)Nc2ccc(-c3cc(C#N)ccc3F)cc21 [Compound 5, 3-(4,4-Dimethyl-2-oxo-1,4-dihydro-2H-benzo[d][1,3]oxazin-6-yl)-4-fluoro-benzonitrile]
[1]; [2]
  inhibition at 1 mg/kg: 60%
other
  melting point: 229 to 230 °C

## CC1(C)OC(=O)Nc2ccc(-c3cc(F)cc([N+](=O)[O-])c3)cc21 [Compound 6, 6-(3-Fluoro-5-nitro-phenyl)-4,4-dimethyl-1,4dihydro-benzo[d][1,3]oxazin-2-one]
[1]; [2]
  inhibition at 1 mg/kg: 50%
other
  melting point: 260 to 261 °C

## CC1(C)OC(=O)Nc2ccc(-c3cc(F)cc(Br)c3)cc21 [Compound 8, 6-(3-Bromo-5-fluorophenyl)-4,4-dimethyl-1,4-dihydrobenzo[d][1,3]oxazin-2-one]
[1]; [2]
  inhibition at 3 mg/kg: 50%
other
  melting point: 182 to 183 °C

## Cc1cc(C#N)sc1-c1ccc2c(c1)C1(CCCCC1)OC(=O)N2 [Compound 10, 5-(1,2-Dihydro-2-oxospiro[4H-3,1-benzoxazine-4,1-cyclohexan]-6-yl)-4-methyl-2-thiophenecabonitrile]
[1]; dose 10 mg/kg
  Decidualization, percentage inhibition at the dose specified: 50% @ 1O

## N#Cc1ccc(-c2ccc3c(c2)C2(CCCCC2)OC(=O)N3)s1 [Compound 11, 5-(1,2-Dihydro-2-oxospiro[4H-3,1-benzoxazine-4,1-cyclohexan]-6-yl)-2-thiophenecarbonitrile]
[1]; dose 10 mg/kg, read-out: Decidualization, percentage inhibition at the dose specified
  inhibition at 10 mg/kg: 50%
other
  melting point: 243 to 245 °C

## CC1(C)OC(=O)Nc2ccc(-c3ccc(C#N)s3)cc21 [Compound 12, 5-(4,4-Dimethyl-2-oxo-1,4-dihydro-2H-benzo[d][1,3]oxazin-6-yl)-thiophene-2-carbonitrile]
[1]
  Decidualization IC50: 3.34 ± 0.22 mg/kg
other
  melting point: 264 to 266 °C

## CC1(C)OC(=O)Nc2ccc(-c3cccc(Br)c3)cc21 [Compound 13]
[1]
  Decidualization IC50: 3 mg/kg
other
  melting point: 174 to 175 °C

## CC1(C)OC(=O)Nc2ccc(-c3cc(F)cc(Cl)c3)cc21 [Compound 14, 6-(3-Chloro-5fluoro-phenyl)-4,4dimethyl-1,4-dihydro-benzo[d][1,3]oxazin-2-one]
[1]; [2]
  inhibition at 3 mg/kg: 50%

## N#Cc1cc(F)cc(-c2ccc3c(c2)C(C2CC2)(C2CC2)OC(=O)N3)c1 [Compound 15, 3-(4,4Dicyclopropyl-2-oxo-1,4-dihydro-2H-benzo[d][1,3]oxazin-6-yl)5-fluoro-benzonitrile]
[1]
  Decidualization IC50: 3 mg/kg
other
  melting point: 250 to 252 °C

## CC1(C)OC(=O)Nc2ccc(-c3cncc(Br)c3)cc21 [Compound 16, 6-(5-Bromo-pyridin-3-yl)-4,4-dimethyl-1,4-dihydro-benzo[d][1,3]oxazin-2-one]
[1]; [2]
  inhibition at 3 mg/kg: 50%
other
  melting point: 211 to 212 °C

## CC1(C)OC(=O)Nc2ccc(-c3csc(C#N)c3)cc21 [Compound 17, 4-(4.4-Dimethyl-2-oxo-1.4dihydro-2H-benzo[d][1,3]oxazin-6-yl)thiophene2-carbonitrile]
[1]
  Decidualization IC50: 2.3 ± 0.46 mg/kg

## Cc1cc(C#N)sc1-c1ccc2c(c1)C(C)(C)OC(=O)N2 [Compound 18, 5-(4. 4-Dimethyl-2-oxo-1. 4-dihydro-2H-benzo[d][1,3]oxazin-6-yl)-4-methyl-thiophene-2-carbonitrile]
[1]
  Decidualization IC50: 1.5 mg/kg

## CC1(C)OC(=O)Nc2ccc(-c3cc(F)cc(C#N)c3)cc21 [Compound 19, 3-(4,4-Dimethyl-2-oxo-1,4-dihydro-2H-benzo[d][1,3]oxazin-6-yl)-5-fluorobenzonitrile]
[1]
  Decidualization IC50: 0.35 mg/kg

## CC1(C)OC(=O)Nc2ccc(-c3ccc(F)c(Cl)c3)cc21 [Compound 20, 6-(3-Chloro-4-fluoro-phenyl)-4,4-dimethyl-1,4-dihydro-benzo[d][1,3]oxazin-2-one]
[1]
  Decidualization IC50: 1 mg/kg

## C#C[C@]1(O)CC[C@H]2[C@@H]3CCC4=CC(=O)CC[C@@H]4[C@H]3CC[C@@]21CC [Levonorgestrel, reference compound]
[1]
  Estimated average EC50 (decidual response): 0.10 mg/kg
  Estimated EC50 for uterine wet weight (decidual response): 0.08 mg/kg and 0.12 mg/kg and 0.09 mg/kg (2×)

## CC(=O)O[C@]1(C(C)=O)CC[C@H]2[C@@H]3C[C@H](C)C4=CC(=O)CC[C@]4(C)[C@H]3CC[C@@]21C [MPA, medroxyprogesterone acetate, reference compound]
T47D cells; Homo sapiens, T47D
  EC50: 0.019 nM
[1]
  Estimated EC50 for uterine wet weight (decidual response): 0.42 mg/kg and 0.39 mg/kg (2×)

## CC(=O)[C@H]1CC[C@H]2[C@@H]3CCC4=CC(=O)CC[C@]4(C)[C@H]3CC[C@]12C [Progesterone, reference compound]
[1]
  Estimated average EC50 (decidual response): 5.62 mg/kg
  Estimated EC50 for uterine wet weight (decidual response): 5.50 mg/kg

## C[C@H](O)C(=O)[C@@]1(C)CC[C@H]2[C@@H]3CCC4=CC(=O)CCC4=C3CC[C@@]21C [Trimegestone]
T47D cells
  EC50: 0.017 nM and 0.014 nM and 0.019 nM
